Measurements reported in patent US10336702B2, “Pharmaceutically active compounds” (BERGENBIO ASA, priority 2015, dated 2019).

What was measured:
[1] = biological target: T1, p-Akt1 in LNCaP cells (Homo sapiens, UniProt P31749); test: Phospho-Akt cellular SureFire assay, p-Akt1 in LNCaP cells; type: cell-based; conditions: read-out: Biological Assay 2 IC50 (nM) Akt1 LNCaP
T1 construct: SureFire assays to detect cellular p-Akt1, p-Akt2 and p-Akt3 levels in WM115 cells (Akt2/3) and LNCaP cells (Akt1); endogenous in cells; host or cells: LNCaP (ECACC 89110211)
T1 sequence (P31749 whole entry): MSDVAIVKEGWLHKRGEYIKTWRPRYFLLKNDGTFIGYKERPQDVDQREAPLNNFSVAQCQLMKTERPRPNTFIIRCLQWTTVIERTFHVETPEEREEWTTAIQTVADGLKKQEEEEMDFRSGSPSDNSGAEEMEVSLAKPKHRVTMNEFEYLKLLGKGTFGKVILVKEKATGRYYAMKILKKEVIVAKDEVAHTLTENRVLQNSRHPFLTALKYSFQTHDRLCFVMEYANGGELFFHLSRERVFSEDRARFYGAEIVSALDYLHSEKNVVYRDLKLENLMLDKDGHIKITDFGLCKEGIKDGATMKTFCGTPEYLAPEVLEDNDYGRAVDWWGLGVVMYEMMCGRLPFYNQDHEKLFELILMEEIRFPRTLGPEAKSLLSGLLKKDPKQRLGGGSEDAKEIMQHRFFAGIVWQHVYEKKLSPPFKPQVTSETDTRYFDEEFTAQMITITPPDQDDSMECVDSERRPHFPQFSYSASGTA
Method in brief: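 LNCaP cells, 5×10^4/well, seeded overnight, switched to 0.1% FBS medium without insulin stimulation, then compound for 15 min at 37 °C (0.3% DMSO). Lysate p-Akt1 (pThr308) by AlphaScreen SureFire, two 2 h incubations at room temperature; IC50 by 4-parameter fit.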

[2] = biological target: T2, p-Akt2 in WM115 cells (Homo sapiens, UniProt P31751); test: Phospho-Akt cellular SureFire assay, p-Akt2 in WM115 cells; type: cell-based; conditions: insulin stimulated, read-out: Biological Assay 2 IC50 (nM) Akt2 WM115
T2 construct: SureFire assays to detect cellular p-Akt1, p-Akt2 and p-Akt3 levels in WM115 cells (Akt2/3) and LNCaP cells (Akt1); endogenous in cells; host or cells: WM115 (ECACC 91061232), insulin-stimulated
T2 sequence (P31751 whole entry): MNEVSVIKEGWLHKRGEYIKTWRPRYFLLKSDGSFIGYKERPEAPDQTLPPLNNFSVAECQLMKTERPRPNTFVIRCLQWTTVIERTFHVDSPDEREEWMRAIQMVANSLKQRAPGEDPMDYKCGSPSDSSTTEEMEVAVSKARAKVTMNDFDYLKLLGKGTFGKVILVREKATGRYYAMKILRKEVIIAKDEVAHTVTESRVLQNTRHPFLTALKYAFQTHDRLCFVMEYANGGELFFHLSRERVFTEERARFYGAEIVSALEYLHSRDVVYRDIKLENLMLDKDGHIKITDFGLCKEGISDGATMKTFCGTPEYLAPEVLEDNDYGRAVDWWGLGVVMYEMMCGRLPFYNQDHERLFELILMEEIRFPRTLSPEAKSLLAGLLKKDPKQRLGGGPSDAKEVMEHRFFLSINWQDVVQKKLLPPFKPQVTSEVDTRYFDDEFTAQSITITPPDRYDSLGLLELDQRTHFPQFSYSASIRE
Method in brief: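 WM115 cells in 0.1% FBS medium stimulated 10 min with 100 nM insulin, then exposed to compound for 15 min at 37° C (0.3% DMSO final). Lysates assayed by AlphaScreen with anti-(pThr308)Akt and isoform-specific total Akt2 antibodies; IC50 from 4-parameter fit.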

[3] = biological target: T3, Akt1 (Homo sapiens, UniProt P31749); test: Akt activation assay (PDK1-mediated activation, LANCE Ultra crosstide TR-FRET), Akt1; type: biochemical; conditions: read-out: Biological Assay 1 IC50 (nM) Akt1
T3 construct: unspecified tag, removed (detagged) (cleaved yes); purchased SignalChem and Proteros (Akt1); Merck Millipore (PDK1) 14-452 (PDK1); none given for Akt1
T3 sequence (P31749 whole entry): as the sequence (P31749 whole entry) above
Method in brief: (§1)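 Unactivated Akt (5 nM Akt1, 15 or 5 nM Akt2, 3 or 5 nM Akt3, by supplier) preincubated with compound, then activated by 5 nM PDK1 on DOPS/DOPC/PtdIns(3,4,5)P3 vesicles with 100 μM ATP and 100 nM Ulight-crosstide, pH 7.5, 30 min. Eu-anti-phospho-crosstide TR-FRET (665/615 nm); IC50 by 4-parameter fit.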

[4] = biological target: T4, Akt2 (Homo sapiens, UniProt P31751); test: Akt activation assay (PDK1-mediated activation, LANCE Ultra crosstide TR-FRET), Akt2; type: biochemical; conditions: read-out: Biological Assay 1 IC50 (nM) Akt2
T4 construct: unspecified tag, removed (detagged) (cleaved yes); purchased SignalChem and Proteros (Akt2); Merck Millipore (PDK1) 14-452 (PDK1); none given for Akt2
T4 sequence (P31751 whole entry): as the sequence (P31751 whole entry) above
Method in brief: as §1

[5] = biological target: T5, Akt3 (Homo sapiens, UniProt Q9Y243); test: Akt activation assay (PDK1-mediated activation, LANCE Ultra crosstide TR-FRET), Akt3; type: biochemical; conditions: read-out: Biological Assay 1 IC50 (nM) Akt3
T5 construct: unspecified tag, removed (detagged) (cleaved yes); purchased SignalChem and Proteros (Akt3); Merck Millipore (PDK1) 14-452 (PDK1); none given for Akt3
T5 sequence (Q9Y243 whole entry): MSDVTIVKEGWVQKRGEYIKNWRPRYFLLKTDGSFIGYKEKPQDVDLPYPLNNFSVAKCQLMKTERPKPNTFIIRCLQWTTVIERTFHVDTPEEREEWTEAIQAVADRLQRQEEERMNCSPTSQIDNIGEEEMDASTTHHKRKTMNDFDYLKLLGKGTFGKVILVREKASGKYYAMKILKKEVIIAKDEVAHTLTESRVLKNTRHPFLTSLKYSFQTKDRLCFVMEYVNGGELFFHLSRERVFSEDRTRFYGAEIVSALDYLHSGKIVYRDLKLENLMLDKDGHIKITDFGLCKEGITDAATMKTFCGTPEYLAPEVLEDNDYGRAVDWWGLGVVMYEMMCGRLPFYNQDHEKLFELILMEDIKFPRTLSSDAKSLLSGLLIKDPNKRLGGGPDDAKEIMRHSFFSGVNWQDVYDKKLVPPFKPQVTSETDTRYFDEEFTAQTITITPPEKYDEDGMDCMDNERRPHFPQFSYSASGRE
Method in brief: as §1

[6] = biological target: T6, p-Akt3 in WM115 cells (Homo sapiens, UniProt Q9Y243); test: Phospho-Akt cellular SureFire assay, p-Akt3 in WM115 cells; type: cell-based; conditions: insulin stimulated, read-out: Biological Assay 2 IC50 (nM) Akt3 WM115
T6 construct: SureFire assays to detect cellular p-Akt1, p-Akt2 and p-Akt3 levels in WM115 cells (Akt2/3) and LNCaP cells (Akt1); endogenous in cells; host or cells: WM115 (ECACC 91061232), insulin-stimulated
T6 sequence (Q9Y243 whole entry): as above
Method in brief: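 WM115 cells were serum-reduced to 0.1% FBS, stimulated with 100 nM insulin for 10 min, then exposed to compound (0.3% DMSO) for 15 min at 37 °C. Lysates were assayed for Thr308-phosphorylated Akt3 by AlphaScreen SureFire using an isoform-specific total Akt3 capture antibody. IC50 was derived from a 4-parameter fit.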

Row | SMILES | IC50 [1] [nM] | IC50 [2] [nM] | IC50 [3] [nM] | IC50 [4] [nM] | IC50 [5] [nM] | IC50 [6] [nM]
1 | CN(C(=O)C1CC1)[C@H]1CC[C@H](CC(=O)Nc2cc(-c3ccccc3)c(-c3ccc([C@]4(N)C[C@H](F)C4)cc3)nn2)CC1 [Example 71, N-(trans-4-(2-((6-(4-(trans-1-amino-3-fluorocyclobutyl)phenyl)-5-phenylpyridazin-3-yl)amino)-2-oxoethyl)cyclohexyl)-N-methylcyclopropanecarboxamide] | 9100 | 1300 | 10000 | 350 | 16 | 44
2 | CCC(=O)N(C)[C@H]1CC[C@H](CC(=O)Nc2cc(-c3ccccc3)c(-c3ccc([C@]4(N)C[C@](C)(O)C4)cc3)cn2)CC1 [Example 82, N-(trans-4-(2-((5-(4-(trans-1-amino-3-hydroxy-3-methylcyclobutyl)phenyl)-4-phenylpyridin-2-yl)amino)-2-oxoethyl)cyclohexyl)-N-methylpropionamide] | 2400 | 380 | > 19000 | 130 | 6 | 10
3 | NC1(c2ccc(-c3cnc(NC(=O)C[C@H]4CC[C@H](N5CCOC5=O)CC4)cc3-c3ccsc3)cc2)CCC1 [Example 70, N-(5-(4-(1-aminocyclobutyl)phenyl)-4-(thiophen-3-yl)pyridin-2-yl)-2-(trans-4-(2-oxooxazolidin-3-yl)cyclohexyl)acetamide] | > 30000 | 910 | > 30000 | 830 | 42 | 39
4 | COC(=O)N(C)[C@H]1CC[C@H](CC(=O)Nc2cc(-c3ccccn3)c(-c3ccc(C4(N)CCC4)cc3)cn2)CC1 [Example 86, Methyl (trans-4-(2-((5′-(4-(1-aminocyclobutyl)phenyl)-[2,4′-bipyridin]-2′-yl)amino)-2-oxoethyl)cyclohexyl)(methyl)carbamate] | > 30000 | 12000 | > 30000 | 14000 | 480 | 430
5 | NC1(c2ccc(-c3ncc(NC(=O)[C@@H](F)C4CCN(S(=O)(=O)C5CC5)CC4)cc3-c3ccccc3)cc2)CCC1 [Example 50, (S)—N-(6-(4-(1-aminocyclobutyl)phenyl)-5-phenylpyridin-3-yl)-2-(1-(cyclopropylsulfonyl)piperidin-4-yl)-2-fluoroacetamide] | > 30000 | 6800 | 5800 | 670 | 370 | 580
6 | CC(C)C(=O)N(C)[C@H]1CC[C@H](CC(=O)Nc2cc(-c3ccccc3)c(-c3ccc([C@]4(N)C[C@](C)(O)C4)cc3)nn2)CC1 [Example A79, N-(trans-4-(2-((6-(4-(trans-1-amino-3-hydroxy-3-methylcyclobutyl)phenyl)-5-phenylpyridazin-3-yl)amino)-2-oxoethyl)cyclohexyl)-N-methylisobutyramide] | 1900 | 370 | 3900 | 63 | 4 | 10
7 | CC(=O)N(C)[C@H]1CC[C@H](CC(=O)Nc2cnc(-c3ccc(C4(N)CCC4)cc3)c(-c3ccccc3F)c2)CC1 [Example 16, N-(6-(4-(1-aminocyclobutyl)phenyl)-5-(2-fluorophenyl)pyridin-3-yl)-2-(trans-4-(N-methylacetamido)cyclohexyl)acetamide] | 11000 | 710 | 7800 | 380 | 24 | 45
8 | N[C@]1(c2ccc(-c3nnc(NC(=O)C[C@H]4CC[C@H](N5CCOC5=O)CC4)cc3-c3ccsc3)cc2)C[C@@H](F)C1 [Example 79, N-(6-(4-(trans-1-amino-3-fluorocyclobutyl)phenyl)-5-(thiophen-3-yl)pyridazin-3-yl)-2-(trans-4-(2-oxooxazolidin-3-yl)cyclohexyl)acetamide] | > 30000 | > 30000 | > 30000 | 590 | 26 | 59
9 | N[C@]1(c2ccc(-c3cnc(NC(=O)C[C@H]4CC[C@H](N5CCOC5=O)CC4)cc3-c3ccccc3)cc2)C[C@@H](F)C1 [Example A53, N-(5-(4-(trans-1-amino-3-fluorocyclobutyl)phenyl)-4-phenylpyridin-2-yl)-2-(trans-4-(2-oxooxazolidin-3-yl)cyclohexyl)acetamide] | > 30000 | 5400 | > 30000 | 480 | 39 | 410

Next, values leading:

Row | IC50 [1] [nM] | IC50 [2] [nM] | IC50 [3] [nM] | IC50 [4] [nM] | IC50 [5] [nM] | IC50 [6] [nM] | SMILES
10 | 670 | 390 | 2400 | 44 | 6 | 12 | CC(C)C(=O)N(C)[C@H]1CC[C@H](CC(=O)Nc2cnc(-c3ccc([C@]4(N)C[C@](C)(O)C4)cc3)c(-c3ccccc3)c2)CC1 [Example 99, N-(4-(2-((6-(4-(trans-1-amino-3-hydroxy-3-methylcyclobutyl)phenyl)-5-phenylpyridin-3-yl)amino)-2-oxoethyl)cyclohexyl)-N-methylisobutyramide]
11 | > 30000 | 7800 | > 27000 | 3000 | 130 | 440 | CCOC(=O)N(C)[C@H]1CC[C@H](CC(=O)Nc2cnc(-c3ccc(C(C)(C)N)cc3)c(-c3ccccc3)c2)CC1 [Example A99, Ethyl (trans-4-(2-((6-(4-(2-aminopropan-2-yl)phenyl)-5-phenylpyridin-3-yl)amino)-2-oxoethyl)cyclohexyl)(methyl)carbamate]
12 | > 27000 | 7900 | > 30000 | 25000 | 6300 | 270 | CC(C)(N)c1ccc(-c2ncc(NC(=O)C[C@H]3CC[C@H](N4CCOCC4)CC3)cc2-c2ccccc2)cc1 [Example A18, N-(6-(4-(2-aminopropan-2-yl)phenyl)-5-phenylpyridin-3-yl)-2-(trans-4-morpholinocyclohexyl)acetamide]
13 | 820 | 250 | 2100 | 86 | 4 | 7 | CCC(=O)N(C)[C@H]1CC[C@H](CC(=O)Nc2cc(-c3ccccc3)c(-c3ccc([C@]4(N)C[C@](C)(O)C4)cc3)nn2)CC1 [Example 83, N-(trans-4-(2-((6-(4-(trans-1-amino-3-hydroxy-3-methylcyclobutyl)phenyl)-5-phenylpyridazin-3-yl)amino)-2-oxoethyl)cyclohexyl)-N-methylpropionamide]
14 | > 30000 | > 30000 | > 45000 | > 50000 | 110 | 1800 | CC(=O)N[C@H]1CC[C@H](CC(=O)Nc2cnc(-c3ccc(C(C)(C)N)cc3)c(-c3ccccc3)c2)CC1 [Example A19, 2-(trans-4-acetamidocyclohexyl)-N-(6-(4-(2-aminopropan-2-yl)phenyl)-5-phenylpyridin-3-yl)acetamide]
15 | > 30000 | 6300 | > 30000 | 2400 | 1000 | 190 | CC(C)(N)c1ccc(-c2ncc(NC(=O)C[C@H]3CC[C@H](C(=O)N4CCOCC4)CC3)cc2-c2ccccc2)cc1 [Example A46, N-(6-(4-(2-aminopropan-2-yl)phenyl)-5-phenylpyridin-3-yl)-2-(trans-4-(morpholine-4-carbonyl)cyclohexyl)acetamide]
